Source: PubChem BioAssay (NCI)
Values joined by “and” are separate entries in the source; they are usually repeats but may differ in a detail not shown here. Equal values may be shown once.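 Protocol summary: plate cells (96-well), add compound at 5 concentrations, incubate 48 h, interpolate endpoints linearly. Abbreviation: GI50, concentration required for 50% inhibition of growth. Definition used: TGI = concentration required for complete inhibition of growth.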

What was measured:
Assay in all cases: DTP human tumour cell line panel, 48 h
HL-60(TB) leukemia = test system: HL-60(TB) leukemia
HCC-2998 colon = test system: HCC-2998 colon
SW-620 colon = test system: SW-620 colon
SNB-75 CNS = test system: SNB-75 CNS
A498 renal = test system: A498 renal
PC-3 prostate = test system: PC-3 prostate
UO-31 renal = test system: UO-31 renal
MDA-MB-231 breast = test system: MDA-MB-231 breast
RPMI-8226 leukemia = test system: RPMI-8226 leukemia
CCRF-CEM leukemia = test system: CCRF-CEM leukemia

| SMILES | GI50 (HL-60(TB) leukemia) | TGI (HL-60(TB) leukemia) | GI50 (HCC-2998 colon) | TGI (HCC-2998 colon) | GI50 (SW-620 colon) | TGI (SW-620 colon) | GI50 (SNB-75 CNS) | TGI (SNB-75 CNS) | GI50 (A498 renal) | TGI (A498 renal) | GI50 (PC-3 prostate) | TGI (PC-3 prostate) | GI50 (UO-31 renal) | TGI (UO-31 renal) | GI50 (MDA-MB-231 breast) | TGI (MDA-MB-231 breast) | GI50 (RPMI-8226 leukemia) | TGI (RPMI-8226 leukemia) | TGI (CCRF-CEM leukemia) | GI50 (CCRF-CEM leukemia) |
| --- | --- | --- | --- | --- | --- | --- | --- | --- | --- | --- | --- | --- | --- | --- | --- | --- | --- | --- | --- | --- |
| Cc1c(Br)c(Br)c2c3c1nc(N1CCNCC1)n3CCC2 | 2.16 µM | 5.31 µM | 1.81 µM | 3.51 µM | 1.55 µM | 3.09 µM | 1.96 µM | 4.1 µM | 1.44 µM | 2.99 µM | 1.04 µM | 2.25 µM | 1.54 µM | 2.91 µM | 1.36 µM | 2.74 µM |  |  |  |  |
| COc1cc2c3c(n(CCCNCCCCN)c(=O)c2cc1OC)-c1cc2c(cc1C3=O)OCO2 | 0.335 µM |  |  |  | 1.4 µM | 27.3 µM | 10.7 µM | 32.2 µM | 5.07 µM | 21 µM | 4.51 µM | 26 µM | 7.39 µM | > 58.5 µM | 2.86 µM | 9.13 µM | 0.355 µM | 13.1 µM | > 40.1 µM |  |
| CC[C@@]1(O)C(=O)OCc2c1cc1n(c2=O)Cc2cc3cc(O)ccc3nc2-1 | 0.0187 µM | 0.135 µM | 0.0589 µM and 0.0721 µM | 0.912 µM and 0.847 µM | 0.0179 µM and < 0.0154 µM | 22.9 µM and 3.78 µM |  | 0.206 µM and 0.107 µM | 0.195 µM and 0.0455 µM | 0.703 µM and 0.453 µM |  | > 100 µM | 0.0311 µM and 0.0195 µM | 0.204 µM and 0.135 µM |  | > 100 µM | 0.139 µM and 0.277 µM | 6.03 µM and 4.87 µM |  |  |
| CC(=O)CCC[C@@H](C)[C@@H]1O[C@H]([C@@]2(C)CCC(=O)O2)CC2[C@H]1OC(=O)C21CC1 (some centres not stated) | > 100 µM | > 100 µM | 77.2 µM | > 100 µM | > 100 µM | > 100 µM | > 100 µM | > 100 µM |  |  | 52.5 µM | > 100 µM | > 100 µM | > 100 µM | > 100 µM | > 100 µM | > 100 µM | > 100 µM | > 100 µM | > 100 µM |
| CCNCCS(=O)(=O)NC[C@@]1(c2ccccc2)SC(NC(=O)C(C)(C)C)=NN1C(=O)C(C)(C)C |  |  | < 0.01 µM | > 51.2 µM | < 0.01 µM | > 100 µM | < 0.0137 µM | > 73.8 µM | < 0.01 µM | 53.4 µM | < 0.01 µM | > 100 µM | 18.8 µM | > 100 µM | < 0.01 µM | 28.1 µM | < 0.01 µM | > 100 µM | > 100 µM | < 0.01 µM |
| CCCCCCCCCCCCCCCC(=O)OCC1OC(OCCCC)[C@H](O[C@@H]2OC(C)C(OC(=O)CCC)C(O)C2O)C(O)C1O (some centres not stated) | 14.5 µM | 32 µM |  |  | 21.9 µM | 44.5 µM | 14.4 µM | 28.7 µM |  |  | 15.4 µM | 30.5 µM | 28.3 µM | > 100 µM | 14.4 µM | 30.2 µM | 16.8 µM | 33.4 µM | 35 µM | 17.2 µM |
| COc1cccc(N2C(=N)/C(=C3\Nc4ccccc4S3)CC2=O)c1 | 4.85 µM | > 100 µM |  |  | 4.87 µM | > 100 µM | 10.3 µM | 57.3 µM | 2.02 µM | 80 µM | 3.03 µM | > 100 µM | 4.1 µM | > 100 µM | 51.1 µM | > 100 µM | 2.73 µM | > 100 µM | > 100 µM | 1.91 µM |
| Oc1c(Cl)cc(Cl)c(Cl)c1Cc1c(O)c(Cl)cc(Cl)c1Cl | 0.678 µM | 7.96 µM | 0.584 µM | 12.9 µM | 3.06 µM | 14.4 µM | 1.65 µM | 10.6 µM | 0.419 µM | 7.12 µM | 0.498 µM | 10.6 µM | 2.18 µM | 11.8 µM | 1.35 µM | 5.53 µM |  |  |  |  |
| O=C(CC(O)(C(F)(F)F)C(F)(F)F)c1cccs1 |  | > 10 µM |  | > 10 µM |  | > 10 µM |  | > 10 µM |  |  |  | > 10 µM |  |  |  | > 10 µM |  | > 10 µM | > 10 µM |  |
| Cc1cc2c3c(nc4ccccc42)C(=O)c2cccnc2-c3n1 | 0.135 µM | 1.36 µM | 0.311 µM | 1.26 µM | 0.17 µM | 1.01 µM | 0.833 µM | 3.09 µM | 0.966 µM | 4.12 µM | 0.304 µM | 3.04 µM |  |  | 0.644 µM | 5.56 µM | 0.099 µM | 0.46 µM | 1.4 µM | 0.171 µM |
| Nc1ncc(-c2ccc3ncnc(N4CCc5cc(F)c(Cl)cc54)c3c2)cc1C=O | 0.403 µM | 3.86 µM | 2.29 µM | > 100 µM |  |  | 0.191 µM | 2.77 µM | 0.167 µM | 0.758 µM | 0.824 µM | > 100 µM | 0.277 µM | > 100 µM | 1.8 µM | > 100 µM |  |  | > 100 µM | 2.12 µM |
| O=C(O)C1CC[N-]CC1.O=C(O)C1CC[N-]CC1.[NH2-].[NH2-].[Pt+4] | > 100 µM | > 100 µM |  |  | > 100 µM | > 100 µM | > 100 µM | > 100 µM | > 100 µM | > 100 µM | > 100 µM | > 100 µM |  |  | > 100 µM | > 100 µM | > 100 µM | > 100 µM | > 100 µM | > 100 µM |
| N#CC(Cl)CS(=O)(=O)c1ccccc1 (configuration not stated) |  | > 100 µM |  | 29.4 µM |  | 3.75 µM |  | 37.1 µM |  | 30.9 µM |  | 31.6 µM |  | 33.5 µM |  | 41.4 µM |  | 14.1 µM |  |  |
| O=C(O)c1cc(-c2ccc(-c3ccccc3)cc2)nc2cc3ccccc3cc12 |  | > 100 µM |  |  |  | > 100 µM |  | 69.9 µM |  | > 100 µM |  | > 100 µM |  | > 100 µM |  | > 100 µM |  | > 100 µM | 39.8 µM |  |
| CCCCNC(=O)CC1=C(C)/C(=C/c2[nH]c(-c3ccc[nH]3)cc2OC)N=C1C | 2.84 µM | 6.87 µM |  |  | 3.23 µM | 13.9 µM | 1.85 µM | 7.36 µM | 2.54 µM | 7.43 µM | 2.36 µM | 14.5 µM | 1.9 µM | 4 µM | 1.48 µM | 8.04 µM | 1.95 µM | 4.43 µM | 8.88 µM | 1.71 µM |
